Measurements reported in PubChem BioAssay (NCI).
Several values for one entry are separate records, joined by “and”; a condition that tells them apart may be missing. Equal entries are not always repeated.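 In this assay, cells in 96-well plates receive the compound at five concentrations for 48 hours. Endpoints are linearly interpolated between the surrounding concentrations. Here, GI50 denotes the concentration required for 50% inhibition of growth. TGI denotes the concentration required for complete inhibition of growth.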

Experiments:
Assay in all cases: NCI tumour cell line growth inhibition, 48 h
IGROV1 ovarian = system: IGROV1 ovarian
OVCAR-8 ovarian = system: OVCAR-8 ovarian
HCT-116 colon = system: HCT-116 colon
HS 578T breast = system: HS 578T breast
OVCAR-3 ovarian = system: OVCAR-3 ovarian
A549 NSCLC = system: A549 NSCLC
UACC-257 melanoma = system: UACC-257 melanoma
M14 melanoma = system: M14 melanoma
RPMI-8226 leukemia = system: RPMI-8226 leukemia
SW-620 colon = system: SW-620 colon

CCSC1=NC2C(N(CC)C(=O)N2CC)N1/N=C/C=C/c1ccccc1[N+](=O)[O-] (centres undefined)
GI50 (IGROV1 ovarian): 0.246 µM | TGI (IGROV1 ovarian): > 100 µM | GI50 (OVCAR-8 ovarian): 0.385 µM | TGI (OVCAR-8 ovarian): > 100 µM | GI50 (HCT-116 colon): 114 nM | TGI (HCT-116 colon): > 100 µM | GI50 (HS 578T breast): 0.118 µM | TGI (HS 578T breast): > 100 µM | GI50 (OVCAR-3 ovarian): 169 nM | GI50 (A549 NSCLC): 0.307 µM | TGI (A549 NSCLC): > 100 µM | GI50 (UACC-257 melanoma): 23.8 µM | TGI (UACC-257 melanoma): > 100 µM | GI50 (M14 melanoma): 0.184 µM | TGI (M14 melanoma): > 100 µM | GI50 (RPMI-8226 leukemia): 0.334 µM | TGI (RPMI-8226 leukemia): > 34.1 µM | GI50 (SW-620 colon): 0.186 µM | TGI (SW-620 colon): > 100 µM

CCOc1ccccc1CCN=C1NC(=O)/C(=C/c2ccc3ncccc3c2)S1
GI50 (IGROV1 ovarian): 1.47 µM | TGI (IGROV1 ovarian): 15 µM | GI50 (OVCAR-8 ovarian): 3.08 µM | TGI (OVCAR-8 ovarian): > 25 µM | GI50 (HCT-116 colon): 995 nM | TGI (HCT-116 colon): > 9.15 µM | GI50 (HS 578T breast): 2.76 µM | TGI (HS 578T breast): > 7.14 µM | GI50 (OVCAR-3 ovarian): 772 nM | TGI (OVCAR-3 ovarian): 2.29 µM | GI50 (A549 NSCLC): 1.23 µM | TGI (A549 NSCLC): > 25 µM | GI50 (UACC-257 melanoma): 10.5 µM | TGI (UACC-257 melanoma): > 22.7 µM | GI50 (M14 melanoma): 2.17 µM | TGI (M14 melanoma): 10.4 µM | GI50 (RPMI-8226 leukemia): 1.02 µM | TGI (RPMI-8226 leukemia): 8.38 µM | GI50 (SW-620 colon): 0.712 µM | TGI (SW-620 colon): 5.28 µM

Clc1ccc(-c2cn3ccnc3c(-c3ccc(Cl)cc3)n2)cc1
GI50 (IGROV1 ovarian): 21 µM | TGI (IGROV1 ovarian): > 100 µM | GI50 (OVCAR-8 ovarian): 16 µM | TGI (OVCAR-8 ovarian): > 100 µM | GI50 (HCT-116 colon): 12200 nM | TGI (HCT-116 colon): > 100 µM | GI50 (HS 578T breast): 26.3 µM | TGI (HS 578T breast): 92.4 µM | GI50 (OVCAR-3 ovarian): 16800 nM | TGI (OVCAR-3 ovarian): > 100 µM | GI50 (A549 NSCLC): 8.31 µM | TGI (A549 NSCLC): > 100 µM | GI50 (UACC-257 melanoma): 2.58 µM | TGI (UACC-257 melanoma): 33.9 µM | GI50 (M14 melanoma): 13.7 µM | TGI (M14 melanoma): 84.7 µM | GI50 (RPMI-8226 leukemia): 10.1 µM | TGI (RPMI-8226 leukemia): > 100 µM | GI50 (SW-620 colon): 7.42 µM | TGI (SW-620 colon): > 100 µM

O=C(Nc1cccc(Cl)c1)Nn1cnnc1
GI50 (IGROV1 ovarian): > 50 µM | TGI (IGROV1 ovarian): > 100 µM | GI50 (OVCAR-8 ovarian): > 50 µM | TGI (OVCAR-8 ovarian): > 100 µM | GI50 (HCT-116 colon): > 50000 nM | TGI (HCT-116 colon): > 100 µM | GI50 (HS 578T breast): > 50 µM | TGI (HS 578T breast): > 100 µM | GI50 (OVCAR-3 ovarian): > 50000 nM | TGI (OVCAR-3 ovarian): > 100 µM | GI50 (A549 NSCLC): > 50 µM | TGI (A549 NSCLC): > 100 µM | GI50 (UACC-257 melanoma): > 50 µM | TGI (UACC-257 melanoma): > 100 µM | GI50 (M14 melanoma): > 50 µM | TGI (M14 melanoma): > 100 µM | GI50 (RPMI-8226 leukemia): > 50 µM | TGI (RPMI-8226 leukemia): > 100 µM | GI50 (SW-620 colon): > 50 µM | TGI (SW-620 colon): > 100 µM

CC1=C2C(=C[C@@](C)(CO)[C@@H]2OC(=O)N(C)CCN(C)C(=O)OC(C)(C)C)C(=O)[C@](C)(O)C12CC2
GI50 (IGROV1 ovarian): 1.97 µM | TGI (IGROV1 ovarian): 18.8 µM | GI50 (OVCAR-8 ovarian): 6.51 µM | TGI (OVCAR-8 ovarian): 45.7 µM | GI50 (HCT-116 colon): 2760 nM | TGI (HCT-116 colon): > 50 µM | GI50 (HS 578T breast): 15.3 µM | TGI (HS 578T breast): > 50 µM | GI50 (OVCAR-3 ovarian): 2310 nM | TGI (OVCAR-3 ovarian): 21 µM | GI50 (A549 NSCLC): 5.88 µM | TGI (A549 NSCLC): > 50 µM | GI50 (UACC-257 melanoma): 10.1 µM | TGI (UACC-257 melanoma): 26.3 µM | GI50 (M14 melanoma): 6.36 µM | TGI (M14 melanoma): 20.8 µM | GI50 (RPMI-8226 leukemia): 5.83 µM | TGI (RPMI-8226 leukemia): 43.8 µM | GI50 (SW-620 colon): 12.8 µM | TGI (SW-620 colon): > 50 µM

CCCN1C(=O)NC(=O)C(CC)(N2C(=O)c3c(F)c(F)c(F)c(F)c3C2=O)C1=O (centres undefined)
GI50 (IGROV1 ovarian): 1.58 µM | TGI (IGROV1 ovarian): 3.67 µM | GI50 (OVCAR-8 ovarian): 2.54 µM | TGI (OVCAR-8 ovarian): 7.81 µM | GI50 (HCT-116 colon): 1480 nM | TGI (HCT-116 colon): 4.93 µM | GI50 (HS 578T breast): 2.3 µM | TGI (HS 578T breast): 6.94 µM | GI50 (OVCAR-3 ovarian): 1690 nM | TGI (OVCAR-3 ovarian): 3.16 µM | GI50 (A549 NSCLC): 2.84 µM | TGI (A549 NSCLC): 8.45 µM | GI50 (UACC-257 melanoma): 2.99 µM | TGI (UACC-257 melanoma): 8.63 µM | GI50 (M14 melanoma): 2.2 µM | TGI (M14 melanoma): 6.37 µM | GI50 (RPMI-8226 leukemia): 0.596 µM | TGI (RPMI-8226 leukemia): 3.14 µM | GI50 (SW-620 colon): 1.3 µM | TGI (SW-620 colon): 2.82 µM

Nc1nc2ccc(-c3nc4ccc5[nH]ncc5c4c4c3CCC4)cc2s1
GI50 (IGROV1 ovarian): 0.288 µM | TGI (IGROV1 ovarian): 8.66 µM | GI50 (OVCAR-8 ovarian): 0.978 µM | TGI (OVCAR-8 ovarian): 20.7 µM | GI50 (HCT-116 colon): 244 nM | TGI (HCT-116 colon): 6.68 µM | GI50 (HS 578T breast): 0.189 µM | TGI (HS 578T breast): 3.13 µM | GI50 (OVCAR-3 ovarian): 187 nM | TGI (OVCAR-3 ovarian): 10.8 µM | GI50 (A549 NSCLC): 0.44 µM | TGI (A549 NSCLC): 23.9 µM | GI50 (UACC-257 melanoma): 0.731 µM | TGI (UACC-257 melanoma): 5.58 µM | GI50 (M14 melanoma): 0.172 µM | TGI (M14 melanoma): 8.86 µM | GI50 (RPMI-8226 leukemia): 0.472 µM | TGI (RPMI-8226 leukemia): 10.5 µM | GI50 (SW-620 colon): 0.186 µM | TGI (SW-620 colon): 7.05 µM

O=C1OCC2=C1C(c1cccc(F)c1)c1cc3c(cc1N2CCO)OCO3 (centres undefined)
GI50 (IGROV1 ovarian): 4.19 µM | TGI (IGROV1 ovarian): > 50 µM | GI50 (OVCAR-8 ovarian): 3.18 µM | TGI (OVCAR-8 ovarian): > 50 µM | GI50 (HCT-116 colon): 1530 nM | TGI (HCT-116 colon): > 50 µM | GI50 (HS 578T breast): 1.42 µM | TGI (HS 578T breast): > 50 µM | GI50 (OVCAR-3 ovarian): 1270 nM | TGI (OVCAR-3 ovarian): > 50 µM | GI50 (A549 NSCLC): 8.74 µM | TGI (A549 NSCLC): > 50 µM | GI50 (UACC-257 melanoma): > 50 µM | TGI (UACC-257 melanoma): > 50 µM | GI50 (M14 melanoma): 0.357 µM | TGI (M14 melanoma): > 50 µM | GI50 (RPMI-8226 leukemia): 2.28 µM | TGI (RPMI-8226 leukemia): > 50 µM | GI50 (SW-620 colon): 1.65 µM | TGI (SW-620 colon): > 50 µM

O=S(=O)(/N=c1\scc(-c2ccccc2)n1-c1ccccc1)c1ccc(N2N=C3c4ccccc4CC3C2c2ccc(Cl)cc2)cc1 (centres undefined)
GI50 (IGROV1 ovarian): 25.7 µM | TGI (IGROV1 ovarian): 85.1 µM | GI50 (OVCAR-8 ovarian): 36.1 µM | TGI (OVCAR-8 ovarian): > 100 µM | GI50 (HCT-116 colon): 47500 nM | TGI (HCT-116 colon): > 100 µM | GI50 (HS 578T breast): 33 µM | TGI (HS 578T breast): > 100 µM | GI50 (OVCAR-3 ovarian): 44300 nM | TGI (OVCAR-3 ovarian): > 100 µM | GI50 (A549 NSCLC): 31.4 µM | TGI (A549 NSCLC): > 100 µM | GI50 (UACC-257 melanoma): 83.5 µM | TGI (UACC-257 melanoma): > 100 µM | GI50 (M14 melanoma): > 100 µM | TGI (M14 melanoma): > 100 µM | GI50 (RPMI-8226 leukemia): 21.5 µM | TGI (RPMI-8226 leukemia): > 100 µM | GI50 (SW-620 colon): 35 µM | TGI (SW-620 colon): > 100 µM

CC(=O)c1c(O)c(C)c(O)c(Cc2c(O)c3c(c(C(=O)/C=C/c4ccccc4)c2O)OC(C)(C)C=C3)c1O
TGI (IGROV1 ovarian): 16.3 µM | TGI (OVCAR-8 ovarian): 23.7 µM | TGI (HCT-116 colon): 10.2 µM | TGI (HS 578T breast): > 100 µM | TGI (OVCAR-3 ovarian): 15.8 µM | TGI (A549 NSCLC): 5.13 µM | TGI (UACC-257 melanoma): 7.16 µM | TGI (M14 melanoma): 18.4 µM | TGI (RPMI-8226 leukemia): > 100 µM | TGI (SW-620 colon): 14.8 µM

Cn1ncc(-c2ccc3c(=O)[nH]nc(CN)c3c2)c1-c1c(F)c(Cl)cc(OC2CC2)c1C#N
GI50 (IGROV1 ovarian): 14.2 µM and 11.6 µM | TGI (IGROV1 ovarian): 30.1 µM and 24.6 µM | GI50 (OVCAR-8 ovarian): 13.9 µM and 13.7 µM | TGI (OVCAR-8 ovarian): 27.4 µM and 27.1 µM | GI50 (HCT-116 colon): 13100 nM and 12800 nM | TGI (HCT-116 colon): 29.1 µM and 27.5 µM | GI50 (HS 578T breast): 12.4 µM and 11 µM | TGI (HS 578T breast): 33.8 µM and 29.9 µM | GI50 (OVCAR-3 ovarian): 15000 nM and 12600 nM | TGI (OVCAR-3 ovarian): 30.6 µM and 26.5 µM | GI50 (A549 NSCLC): 15.8 µM and 15.4 µM | TGI (A549 NSCLC): 33.9 µM and 32.2 µM | GI50 (UACC-257 melanoma): 13.9 µM and 14.1 µM | TGI (UACC-257 melanoma): 28.4 µM and 29.4 µM | GI50 (M14 melanoma): 14.2 µM and 13.4 µM | TGI (M14 melanoma): 28.9 µM and 27.5 µM | GI50 (RPMI-8226 leukemia): 14.9 µM and 16 µM | TGI (RPMI-8226 leukemia): 47.5 µM and 47.8 µM | GI50 (SW-620 colon): 13.8 µM and 12.6 µM | TGI (SW-620 colon): 29.4 µM and 27.3 µM
